Common to all, as to details: 72 h
Assay [1] concerns U2OS. Nature of the assay: drug sensitivity score (DSS) for viability; higher = more toxic; extreme values may be limits of the assay.
Assay [2] relates to Calu-3. Described as above.
The test system of assay [3] is HepG2. The description is as above.
Assay [4] has as its system Caco-2. The description is as above.
The subject of assay [5] is U2OS. Put plainly: relative viability EC50 (midpoint between 100% and the lowest measured viability); higher = less toxic.
The test system of assay [6] is Calu-3. The assay is described as above.
Assay [7] concerns Caco-2. Described as above.
Assay [8] has as its system HepG2. The assay is described as above.
In assay [9] the test system is U2OS. Nature of the assay: cell viability relative to DMSO; higher = less toxic.
The test system of assay [10] is Calu-3. The assay is described as above.
Assay [11] relates to Caco-2. Described as above.
For assay [12], the system named is HepG2. The description is as above.
Assay [13] concerns Vero E6. Nature of the assay: drug sensitivity score (DSS) for viability; higher = more toxic; extreme values may be limits of the assay.
Assay [14] concerns Vero E6. Nature of the assay: cell viability relative to DMSO; higher = less toxic.

A value given as a limit tells only on which side of the number the result lay.

From the supplement of paper PMC13380429 come the findings set out here.

For the compound `CN(CC(=O)O)C(=N)N` [creatine], the drug sensitivity score in assay [1], in assay [2] and in assay [3] was 0 in each case.
As a reminder, the cell viability is a read-out of living cells in per cent, often relative to untreated cells. Consider `CN[C@@H](C)[C@H]1[C@H](O)C[C@@]2(C)[C@@H]3CC[C@H]4C(C)(C)[C@@H](NC)CC[C@@]45C[C@@]35CC[C@]12C` [cyclovirobuxin-D], for which the drug sensitivity score in assay [1], in assay [2], in assay [4] and in assay [3] was 0 each time. The “relative viability EC50” value in assay [5], in assay [6], in [7] and in assay [8] was over 10 µM in each case. The cell viability in assay [9] (1 nM) is 101%; in [9] (10 nM) it was 96.3%; in assay [9] (100 nM), 99.4%; in [9] (1000 nM), 99.8%; in assay [9] (10000 nM) it was 97.6%; in assay [10] (1 nM) it was 102%. Further, the cell viability in assay [10] (10 nM) was determined as 94.7%; in [10] (100 nM) it was 98.6%; in assay [10] (1000 nM), 99.2%; in assay [10] (10000 nM) it was 102%; in assay [11] (1 nM) it was 101%; in assay [11] (10 nM), 92.1%. Further, the cell viability turned out to be 91.2% in assay [11] (100 nM); 90.1% in assay [11] (1000 nM); 90.6% in assay [11] (10000 nM); 96.3% in assay [12] (1 nM); 99.5% in [12] (10 nM); 91.5% in [12] (100 nM). In addition, the results for the cell viability in assay [12] (1000 nM) and in assay [12] (10000 nM) were 99% and 99.1%, respectively.
In the case of `CO[C@H]1C[C@H](O[C@H]2[C@H](C)O[C@@H](O[C@@H]3/C(C)=C/C[C@@H]4C[C@@H](C[C@]5(C=C[C@H](C)[C@@H](C6CCCCC6)O5)O4)OC(=O)[C@@H]4C=C(C)[C@@H](O)[C@H]5OC/C(=C\C=C\[C@@H]3C)[C@]54O)C[C@@H]2OC)O[C@@H](C)[C@@H]1O` [doramectin], the drug sensitivity score amounted to 3.7 in assay [1]; 1.4 in assay [13]; 1.8 in assay [2]; 2.3 in [4]; 2.5 in [3]. For the same compound, the “relative viability EC50” value in [6] was over 10 µM; in assay [8] it was 3.76 µM. Moreover, the cell viability in [9] (1 nM) was 98.1%; in assay [9] (10 nM), 95.7%; in assay [9] (100 nM), 92.6%; in assay [9] (1000 nM) it was 88.5%; in assay [9] (10000 nM) it was 56.6%; in assay [14] (1 nM) it was 103%. Besides, the cell viability in [14] (10 nM) is 96.3%; in assay [14] (100 nM), 91.1%; in assay [14] (1000 nM) it was 98.1%; in [14] (10000 nM), 72.4%; in assay [10] (1 nM), 102%; in assay [10] (10 nM) it was 95.4%. For the same compound, the cell viability in assay [10] (100 nM) was determined as 105%; in assay [10] (1000 nM) it was 93.8%; in [10] (10000 nM), 75%; in assay [11] (1 nM) it was 102%; in assay [11] (10 nM) it was 92.9%; in assay [11] (100 nM), 93.9%. Also, the cell viability in assay [11] (1000 nM) is 96.8%; in assay [11] (10000 nM), 62.5%; in assay [12] (1 nM) it was 112%; in [12] (10 nM), 104%; in assay [12] (100 nM), 98.1%; in assay [12] (1000 nM), 108%. Also, the cell viability in assay [12] (10000 nM) was determined as 44.9%.
Turning to `O=C(O)[C@@H]1C[C@@H](C2CCCCC2)CN1C(=O)CP(=O)(O)CCCCc1ccccc1` [fosinoprilat], the drug sensitivity score in assay [1], in [2], in assay [4] and in assay [3] was 0 throughout. For the same compound, the “relative viability EC50” value in [5], in assay [6], in assay [7] and in assay [8] was over 10 µM each time. Besides, the cell viability in assay [9] (1 nM) turned out to be 99.6%; in assay [9] (10 nM), 93.7%; in [9] (100 nM), 97.5%; in [9] (1000 nM), 95%; in [9] (10000 nM), 97.1%; in assay [10] (1 nM), 99.4%. The cell viability in assay [10] (10 nM) was found to be 98.8%; in [10] (100 nM), 98.4%; in [10] (1000 nM), 95.1%; in assay [10] (10000 nM), 108%; in assay [11] (1 nM), 97.6%; in assay [11] (10 nM) it was 88.5%. In addition, the cell viability in [11] (100 nM) worked out at 105%; in assay [11] (1000 nM), 90.4%; in assay [11] (10000 nM) it was 102%; in assay [12] (1 nM) it was 105%; in [12] (10 nM), 104%; in assay [12] (100 nM), 96.2%. The cell viability in assay [12] (1000 nM) and in assay [12] (10000 nM) was 101% in each case.
